Laboratory results from ChEMBL document CHEMBL3137381, “MMV Box Onchocerca lienalis screening set”.

Assays:
Type in all cases: functional
Onchocerca lienalis [1] = assay: MMV: Percent motility assay at a compound concentration of 1.25e-5 M. Activity score legend: 3: Active, 2: Moderately active; 1: Inactive, 0: Toxic; details: at 12.5 µM
Onchocerca lienalis [2] = assay: MMV: Percent motility assay at a compound concentration of 3.1e-6 M. Activity score legend: 3: Active, 2: Moderately active; 1: Inactive, 0: Toxic; details: at 3.1 µM
Onchocerca lienalis [3] = assay: MMV: Percent motility assay at a compound concentration of 7.8e-7 M. Activity score legend: 3: Active, 2: Moderately active; 1: Inactive, 0: Toxic; details: at 0.78 µM
Onchocerca lienalis [4] = assay: MMV: Percent motility assay at a compound concentration of 1.9e-7 M. Activity score legend: 3: Active, 2: Moderately active; 1: Inactive, 0: Toxic; details: at 0.19 µM

Row | Structure (SMILES) | Motility (Onchocerca lienalis [1]) | Motility (Onchocerca lienalis [2]) | Motility (Onchocerca lienalis [3]) | Motility (Onchocerca lienalis [4])
1 | COc1ccc(-c2cc3c(nn2)-c2ccccc2C3=O)cc1 | 100% | 100% | 100% | 100%
2 | c1ccc(/C2=N/c3ccccc3/N=C(/c3ccccc3)c3ccccc32)cc1 | 100% | 100% | 100% | 100%
3 | COc1ccc(C2c3ccc4ccccc4c3Oc3ncn(CCCn4ccnc4)c(=N)c32)cc1OC (centres undefined) | 100% | 100% | 100% | 100%
4 | CN(N=O)C1=C(NC2CCCCC2)C(=O)c2ccccc2C1=O | 100% | 100% | 100% | 100%
5 | CCOC(=O)C1=C(C)N=c2sc(=Cc3ccccc3O)c(=O)n2C1c1ccc(OC)c2ccccc12 (centres undefined) | 100% | 100% | 100% | 100%
6 | COc1ccc(CN2CCCC(C(=O)c3ccc(C(F)(F)F)cc3)C2)c(O)c1 (centres undefined) | 100% | 100% | 100% | 100%
7 | O=C(NC1CCCCC1)C(c1cccs1)N(CCc1ccccc1)C(=O)c1ccco1 (centres undefined) | 100% | 100% | 100% | 100%
8 | Cl.c1ccc2c(NCCCCCCNc3c4c(nc5ccccc35)CCCC4)c3c(nc2c1)CCCC3 | 100% | 100% | 100% | 100%
9 | Brc1ccc(Nc2nc3ccccc3nc2Nc2ccc(Br)cc2)cc1 | 100% | 100% | 100% | 100%
10 | O=C(NC1CCN(Cc2ccccc2)CC1)c1cc(C(=O)NC2CCN(Cc3ccccc3)CC2)cc(C(=O)NC2CCN(Cc3ccccc3)CC2)c1 | 100% | 100% | 100% | 100%
11 | Nc1ccc(-c2nc3cc(Cc4ccc5[nH]c(-c6ccc(N)cc6)nc5c4)ccc3[nH]2)cc1 | 0% | 66.66% | 100% | 100%
12 | COc1ccc(-c2cn3c(C(=O)Nc4ccccc4Cl)c(-c4ccccc4)c4c3n2CCCC4)cc1 | 66.66% | 100% | 100% | 100%
13 | CCCCOC(=O)c1ccc(Nc2cc(C)nc3ccc(OC)cc23)cc1 | 100% | 100% | 100% | 100%
14 | Cc1cc(Nc2ccc(OCc3ccccc3)cc2)nc2cc(O)ccc12 | 66.66% | 100% | 100% | 100%
15 | CCN(CC)CCNc1ccnc2cc3ccccc3cc12.O=P(O)(O)O | 100% | 100% | 100% | 100%
16 | N=c1c2ccccc2nnn1-c1cccc(C(F)(F)F)c1 | 100% | 100% | 100% | 100%
17 | COc1cc(-c2nc(-c3ccc(Sc4ccccc4)cc3)c(-c3ccccc3)[nH]2)cc(OC)c1O | 100% | 100% | 100% | 100%
18 | O=c1cc(NC2CCN(CCCc3ccccc3)CC2)c2cc(Cl)ccc2o1 | 100% | 100% | 100% | 100%
19 | COc1ccc(C2NCCc3c2[nH]c2ccccc32)cc1CN1CCN(c2ccc(F)cc2)CC1.Cl (centres undefined) | 100% | 100% | 100% | 100%
20 | OC(Cn1nnc2ccccc21)Cn1c2ccc(Br)cc2c2cc(Br)ccc21 (centres undefined) | 100% | 100% | 100% | 100%
21 | CCOc1ccc(-n2cc(-c3ccccc3)c3c(SCc4cc(C)ccc4C)ncnc32)cc1 | 100% | 100% | 100% | 100%
22 | Cc1ccc(C)c(Cn2c(N3CCC(C(=O)NCc4cccs4)CC3)nc3ccccc32)c1 | 100% | 100% | 100% | 100%
23 | Cc1ccccc1OCCSc1nc2ccc(NC(=O)c3cccs3)cc2s1 | 100% | 100% | 100% | 100%
24 | CC1CCN(Cc2c(O)ccc3cc(-c4nc5ccccc5s4)c(=O)oc23)CC1 | 100% | 100% | 100% | 100%
25 | Cc1ccc2cc3c(N)c4c(C)ccc(C)c4nc3nc2c1 | 100% | 100% | 100% | 100%
26 | CCOc1cc2c(cc1OCC)C(c1cc(Cl)ccc1O)NCC2 (centres undefined) | 100% | 100% | 100% | 100%

Row | Structure (SMILES) | Motility (Onchocerca lienalis [1]) | Motility (Onchocerca lienalis [2]) | Motility (Onchocerca lienalis [3]) | Motility (Onchocerca lienalis [4])
27 | COc1ccc(C2C(C(=O)Nc3cccc(OC)c3)c3ccccc3C(=O)N2C2CCCCC2)cc1 (centres undefined) | 100% | 100% | 100% | 100%
28 | c1ccc2c(NCCc3c[nH]c4ccccc34)c3ccccc3nc2c1 | 100% | 100% | 100% | 100%
29 | CCN(CC)CCCNc1ccnc2cc3ccccc3cc12 | 100% | 100% | 100% | 100%
30 | CCOC(=O)c1cnc2c(C)cccc2c1Nc1ccc(C(C)=O)cc1 | 100% | 100% | 100% | 100%
31 | O=C(Nc1ccc(-c2nc3cc4ccccc4cc3[nH]2)cc1)c1cccc(Br)c1 | 100% | 100% | 100% | 100%
32 | Cc1ccc(-c2nc3ccccc3o2)cc1NCc1cc(Cc2ccccc2)ccc1O | 100% | 100% | 100% | 100%
33 | Cc1ccc(C2CC(C(F)(F)F)n3nc(C(=O)N4CCN(C(c5ccccc5)c5ccccc5)CC4)cc3N2)cc1 (centres undefined) | 100% | 100% | 100% | 100%
34 | COc1cccc(C(=O)NC(c2ccc(C)cc2)c2cc(Cl)c3cccnc3c2O)c1 (centres undefined) | 0% | 33.33% | 100% | 100%
35 | COc1ccc(C(O)(CCC(C)C)C(CN2CCOCC2)c2ccc(Cl)cc2)cc1.Cl (centres undefined) | 100% | 100% | 100% | 100%
36 | CCCOCc1cc(CN2CCN(c3cccc(Cl)c3)CC2)c(O)c2ncccc12 | 100% | 100% | 100% | 100%
37 | O=C(Cc1ccccc1)NC(c1ccc(Cl)cc1)c1c(O)ccc2ccccc12 (centres undefined) | 100% | 100% | 100% | 100%
38 | CCOc1ccc2c(c1)CN(Cc1ccc(Cl)cc1)CO2 | 100% | 100% | 100% | 100%
39 | COc1ccc(C(=O)NC(c2ccccc2Cl)c2cc(Cl)c3cccnc3c2O)cc1 (centres undefined) | 100% | 100% | 100% | 100%
40 | Cc1cccc(N2C(=O)C3C(C2=O)C2(c4ccccc4)C(=O)C3(c3ccccc3)C(c3ccc4c(c3)OCO4)=C2c2ccc3c(c2)OCO3)c1 (centres undefined) | 100% | 100% | 100% | 100%
41 | CCCc1c(C)nc2ccc(Br)cc2c1O | 100% | 100% | 100% | 100%
42 | Cc1ccc(F)cc1NC(=O)c1cc(Cl)ccc1Nc1ccccc1 | 100% | 100% | 100% | 100%
43 | CCOc1ccc(Nc2c3ccccc3nc3ccccc23)cc1.Cl | 100% | 100% | 100% | 100%
44 | CCCCCCc1cc2cc(-c3nc4ccccc4[nH]3)c(=Nc3ccccc3C)oc2cc1O | 100% | 100% | 100% | 100%
45 | CCCCCCC(O)(c1ccc(F)cc1)C(CN1CCOCC1)c1ccccc1.Cl (centres undefined) | 100% | 100% | 100% | 100%
46 | COc1cc(OC)cc(N2C(=O)N(Cc3ccc(C(C)(C)C)cc3)c3ccccc3S2(=O)=O)c1 | 33.33% | 100% | 100% | 100%
47 | CCOc1c(Br)cc(C2C(C(=O)OC)=CN(C)C=C2C(=O)OC)cc1OC | 100% | 100% | 100% | 100%
48 | CN(C)c1ccc(N=Cc2ccc(N3CCOCC3)cc2)cc1 | 93.33% | 100% | 100% | 100%
49 | COc1ccccc1N1C(=N)SC(=Cc2ccc(OCc3ccccc3F)cc2)C1=O | 100% | 100% | 100% | 100%
50 | CCOC(=O)c1c[nH]c2c(CC)cccc2c1=O | 100% | 100% | 100% | 100%
51 | CCCCc1c(CCC)c(=N)c2ccccc2n1C.I | 100% | 100% | 100% | 100%
